Test results reported in patent US8211662B2, “Nitroreductase enzymatic substrates” (Biomerieux, priority 2007, dated 2012).

Experiments:
[1] = system: Salmonella typhimurium NCTC 74; assay: Nitroreductase detection on Columbia agar, colonies read under UV; type: cell-based; parameters: key to Intensity of fluorescence, Salmonella typhimurium NCTC 74 / F: fluorescence (intensity), Salmonella typhimurium NCTC 74 / Intensity of the fluorescence, Salmonella typhimurium NCTC 74: − = no fluorescence detected; +/− = weak fluorescence; + = medium fluorescence; ++ = strong fluorescence
Method: (§1) A mass of 40 mg of each substrate was dissolved in 4 ml of dimethylformamide (DMF). This solution was entirely taken up in 400 ml of Columbia agar autoclaved beforehand and kept molten at 50° C. The final concentration for each substrate was 100 mg/l.
(§2) Each of the media was distributed into Petri dishes 90 mm in diameter, in a proportion of 20 ml per dish.
(§3) 18 microorganism strains derived from collections and belonging to various species of bacteria and of yeasts were inoculated onto these media by semi-quantitative isolation of 10 μl of a suspension at 0.5 McFarland diluted to 1/20. The media were incubated for 24 hours at 37° C., then the colonies formed were examined visually under UV illumination at 360-365 nm.

[2] = system: MRSA NCTC 11939; assay: as above; type: cell-based, Staphylococcus aureus; parameters: key: − = no fluorescence detected; +/− = weak fluorescence; + = medium fluorescence; ++ = strong fluorescence; details: 100 mg/l in Columbia agar, 24 h 37° C., UV 360-365 nm
Method: as §1, §2, §3

[3] = system: Staphylococcus epidermidis NCTC 11047; assay: as above; type: cell-based; parameters: key: − = no fluorescence detected; +/− = weak fluorescence; + = medium fluorescence; ++ = strong fluorescence; details: 100 mg/l in Columbia agar, 24 h 37° C., UV 360-365 nm
Method: as §1, §2, §3

[4] = system: Enterococcus faecalis NCTC 775; assay: as above; type: cell-based; parameters: key: − = no fluorescence detected; +/− = weak fluorescence; + = medium fluorescence; ++ = strong fluorescence; details: 100 mg/l in Columbia agar, 24 h 37° C., UV 360-365 nm
Method: as §1, §2, §3

[5] = system: Bacillus subtilis NCTC 9372; assay: as above; type: cell-based; parameters: key: − = no fluorescence detected; +/− = weak fluorescence; + = medium fluorescence; ++ = strong fluorescence; details: 100 mg/l in Columbia agar, 24 h 37° C., UV 360-365 nm
Method: as §1, §2, §3

[6] = system: Providencia rettgeri NCTC 7475; assay: as above; type: cell-based; parameters: key: − = no fluorescence detected; +/− = weak fluorescence; + = medium fluorescence; ++ = strong fluorescence; details: Table 4; 100 mg/l in Columbia agar, 24 h 37° C., UV 360-365 nm
Method: as §1, §2, §3

[7] = system: Enterobacter cloacae NCTC 11936; assay: as above; type: cell-based; parameters: key: − = no fluorescence detected; +/− = weak fluorescence; + = medium fluorescence; ++ = strong fluorescence; details: 100 mg/l in Columbia agar, 24 h 37° C., UV 360-365 nm
Method: as §1, §2, §3

[8] = system: Candida albicans ATCC 90028; assay: as above; type: cell-based; parameters: key: − = no fluorescence detected; +/− = weak fluorescence; + = medium fluorescence; ++ = strong fluorescence; details: 100 mg/l in Columbia agar, 24 h 37° C., UV 360-365 nm
Method: as §1, §2, §3

[9] = system: Staphylococcus aureus NCTC 6571; assay: as above; type: cell-based; parameters: key: − = no fluorescence detected; +/− = weak fluorescence; + = medium fluorescence; ++ = strong fluorescence; details: 100 mg/l in Columbia agar, 24 h 37° C., UV 360-365 nm
Method: as §1, §2, §3

[10] = system: Pseudomonas aeruginosa NCTC 10662; assay: as above; type: cell-based; parameters: key: − = no fluorescence detected; +/− = weak fluorescence; + = medium fluorescence; ++ = strong fluorescence; details: 100 mg/l in Columbia agar, 24 h 37° C., UV 360-365 nm
Method: as §1, §2, §3

[11] = system: Enterococcus faecium NCTC 7171; assay: as above; type: cell-based; parameters: key: − = no fluorescence detected; +/− = weak fluorescence; + = medium fluorescence; ++ = strong fluorescence; details: Table 4; 100 mg/l in Columbia agar, 24 h 37° C., UV 360-365 nm
Method: as §1, §2, §3

[12] = system: Citrobacter freundii 46262 (wild); assay: as above; type: cell-based; parameters: key: − = no fluorescence detected; +/− = weak fluorescence; + = medium fluorescence; ++ = strong fluorescence; details: Table 4; 100 mg/l in Columbia agar, 24 h 37° C., UV 360-365 nm
Method: as §1, §2, §3

[13] = system: Serratia marcescens NCTC 10211; assay: as above; type: cell-based; parameters: key: − = no fluorescence detected; +/− = weak fluorescence; + = medium fluorescence; ++ = strong fluorescence; details: 100 mg/l in Columbia agar, 24 h 37° C., UV 360-365 nm
Method: as §1, §2, §3

[14] = system: Escherichia coli NCTC 10418; assay: as above; type: cell-based; parameters: key: − = no fluorescence detected; +/− = weak fluorescence; + = medium fluorescence; ++ = strong fluorescence; details: 100 mg/l in Columbia agar, 24 h 37° C., UV 360-365 nm
Method: as §1, §2, §3

[15] = system: Yersinia enterocolitica NCTC 11176; assay: as above; type: cell-based; parameters: key: − = no fluorescence detected; +/− = weak fluorescence; + = medium fluorescence; ++ = strong fluorescence; details: 100 mg/l in Columbia agar, 24 h 37° C., UV 360-365 nm
Method: as §1, §2, §3

[16] = system: Streptococcus pyogenes NCTC 8306; assay: as above; type: cell-based; parameters: key: − = no fluorescence detected; +/− = weak fluorescence; + = medium fluorescence; ++ = strong fluorescence; details: 100 mg/l in Columbia agar, 24 h 37° C., UV 360-365 nm
Method: as §1, §2, §3

[17] = system: Listeria monocytogenes NCTC 11994; assay: as above; type: cell-based; parameters: key: − = no fluorescence detected; +/− = weak fluorescence; + = medium fluorescence; ++ = strong fluorescence; details: 100 mg/l in Columbia agar, 24 h 37° C., UV 360-365 nm
Method: as §1, §2, §3

[18] = system: Candida glabrata NCPF 3943; assay: as above; type: cell-based; parameters: key to Intensity of fluorescence, Candida glabrata NCPF3943 / F: fluorescence (intensity), Candida glabrata NCPF 3943 / Intensity of the fluorescence, Candida glabrata NCPF 3943: − = no fluorescence detected; +/− = weak fluorescence; + = medium fluorescence; ++ = strong fluorescence; details: 100 mg/l in Columbia agar, 24 h 37° C., UV 360-365 nm
Method: as §1, §2, §3

[19] = system: S. epidermidis 2 strains; assay: Detection of various strains of S. aureus in the presence of substrates; type: cell-based
Method: as §1, §2
18 microorganism strains derived from collections and belonging to various species of bacteria and of yeasts were inoculated onto these media by semi-quantitative isolation of 10 μl of a suspension at 0.5 McFarland diluted to 1/20. […]

[20] = system: Staph spp 12 strains; assay: as above; type: cell-based
[21] = system: Morganella morganii 462403 (wild); assay: Nitroreductase detection on Columbia agar, colonies read under UV; type: cell-based; parameters: key to Intensity of fluorescence, Morganella morganii 462403 / F: fluorescence (intensity), Morganella morganii 462403 (wild) / Intensity of the fluorescence, Morganella morganii 462403 (wild): − = no fluorescence detected; +/− = weak fluorescence; + = medium fluorescence; ++ = strong fluorescence; details: 100 mg/l in Columbia agar, 24 h 37° C., UV 360-365 nm
Method: as §1, §2, §3

[22] = system: S. aureus (including MRSA) 10 strains; assay: Detection of various strains of S. aureus in the presence of substrates; type: cell-based, Staphylococcus aureus; details: for No. of strains detected, S. aureus (including MRSA): 10 strains
[23] = system: Enterococcus 6 strains; assay: as above; type: cell-based
[24] = system: Acinetobacter baumanii ATCC 19606; assay: Nitroreductase detection on Columbia agar, colonies read under UV; type: cell-based; parameters: key to Intensity of fluorescence, Acinetobacter baumanii ATCC 19606 / Intensity of the fluorescence, Acinetobacter baumanii ATCC 19606: − = no fluorescence detected; +/− = weak fluorescence; + = medium fluorescence; ++ = strong fluorescence
Method: as §1, §2, §3

[25] = 100 mg/l in Columbia agar, 24 h 37° C., UV 360-365 nm
[26] = Table 4, 100 mg/l in Columbia agar, 24 h 37° C., UV 360-365 nm

In the case of `O=[N+]([O-])c1ccc(F)cc1-c1nc2ccccc2s1` [Substrate 15], the “Intensity of fluorescence, Salmonella typhimurium NCTC 74” value [1, 25] was “++”, the “Intensity of the fluorescence, Salmonella typhimurium NCTC 74” value [1, 26] was “++” and the “Salmonella typhimurium result with the substrate” value ([1]; table 2) was “strongly positive”. For the same compound, the “Intensity of fluorescence, Staphylococcus aureus NCTC 11939” value [2] was “++”, the “Intensity of the fluorescence, MRSA NCTC 11939” value ([2]; Table 4) was “++” and the “Intensity of fluorescence, Staphylococcus epidermidis NCTC 11047” value [3] was “−”. For the same compound, the “Intensity of the fluorescence, Staphylococcus epidermidis NCTC 11047” value ([3]; Table 4) was “−”, the “Intensity of fluorescence, Enterococcus faecalis NCTC 775” value [4] was “−” and the “Intensity of the fluorescence, Enterococcus faecails NCTC 775” value ([4]; Table 4) was “−”. The “Intensity of fluorescence, Bacillus subtilis NCTC 9372” value [5] was “−”, the “Intensity of the fluorescence, Bacillus subtilis NCTC 9372” value ([5]; Table 4) was “−” and the “Intensity of the fluorescence, Providencia rettgeri NCTC 7475” value [6] was “++”. For the same compound, the “Intensity of fluorescence, Enterobacter cloacae NCTC 11936” value [7] was “++”, the “Intensity of the fluorescence, Enterobacter cloacae NCTC 11936” value ([7]; Table 4) was “++” and the “Intensity of fluorescence, Candida albicans ATCC 90028” value [8] was “−”. For the same compound, the “Intensity of the fluorescence, Candida albicans ATCC 90028” value ([8]; Table 4) was “−”, the “Intensity of fluorescence, Staphylococcus aureus NCTC 6571” value [9] was “++” and the “Intensity of the fluorescence, Staphylococcus aureus NCTC 6571” value ([9]; Table 4) was “++”. The “Intensity of fluorescence, Pseudomonas aeruginosa NCTC 10662” value [10] was “−”, the “Intensity of the fluorescence, Pseudomonas aeruginosa NCTC 10662” value ([10]; Table 4) was “+” and the “Intensity of the fluorescence, Enterococcus faecium NCTC 7171” value [11] was “−”. The “Intensity of the fluorescence, Citrobacter freundii 46262 (wild)” value [12] was “++”, the “Intensity of fluorescence, Serratia marcescens NCTC 10211” value [13] was “++” and the “Intensity of the fluorescence, Serratia marcescens NCTC 10211” value ([13]; Table 4) was “++”. The “Intensity of fluorescence, Escherichia coli NCTC 10418” value [14] was “++”, the “Intensity of the fluorescence, Escherichia coli NCTC 10418” value ([14]; Table 4) was “++” and the “Intensity of fluorescence, Yersinia enterocolitica NCTC 11176” value [15] was “−”. For the same compound, the “Intensity of the fluorescence, Yersinia enterocolitica NCTC 11176” value ([15]; Table 4) was “−”, the “Intensity of fluorescence, Streptococcus pyogenes NCTC 8306” value [16] was “−” and the “Intensity of the fluorescence, Streptococcus pyogenes NCTC 8306” value ([16]; Table 4) was “−”. For the same compound, the “Intensity of fluorescence, Listeria monocytogenes NCTC 11994” value [17] was “−”, the “Intensity of the fluorescence, Listeria monocytogenes NCTC 11994” value ([17]; Table 4) was “−” and the “Intensity of fluorescence, Candida glabrata NCPF3943” value [18] was “−”. The “Intensity of the fluorescence, Candida glabrata NCPF 3943” value ([18]; Table 4) was “−”, the “No. of strains detected, S. epidermidis” value ([19]; 24 h) was 0 and the “No. of strains detected, S. epidermidis” value ([19]; 48 h) was 2. The “No. of strains detected, Staph spp” value ([20]; 24 h) was 12, the “No. of strains detected, Staph spp” value ([20]; 48 h) was 12 and the “Intensity of fluorescence, Morganella morganii 462403” value [21] was “++”. For the same compound, the “Intensity of the fluorescence, Morganella morganii 462403 (wild)” value ([21]; Table 4) was “++”, the “Distinguishing or identifying Staphylococcus aureus strains, in particular MRSA, from most of the other Gram-positive bacterial strains” value [22] was “make it possible to distinguish or identify the Staphylococcus aureus strains” and the “No. of strains detected, S. aureus (including MRSA)” value ([22]; 24 h) was 10. For the same compound, the “No. of strains detected, S. aureus (including MRSA)” value ([22]; 48 h) was 10, the “No. of strains detected, Enterococcus” value ([23]; 24 h) was 0 and the “No. of strains detected, Enterococcus” value ([23]; 48 h) was 1. The “Intensity of fluorescence, Acinetobacter baumanii ATCC 19606” value [24, 25] was “+”, the “Intensity of the fluorescence, Acinetobacter baumanii ATCC 19606” value [24, 26] was “+” and the “Distinguishing Pseudomonas aeruginosa from Acinetobacter baumanii” value ([24]; table 2) was “make it possible to distinguish Pseudomonas aeruginosa from Acinetobacter baumanii”.
